This assay has as its target T1, hVR1 (Homo sapiens, UniProt Q8NER1).
T1 construct: expressed in transfected cells
Nature of the assay: hVR1 FLIPR (Fluorometric Image Plate Reader) screening assay, IC50 determination. Particulars: agonist capsaicin, inhibition of increase in intracellular calcium. Type of assay: cell-based. As for the experimental part: 1. hVR1 FLIPR (Fluorometric Image Plate Reader) screening assay
Transfected CHO cells, stably expessing hVR1 (15,000 cells/well) are seeded in 50 ul media in a black clear bottom 384 plate (Greiner) and grown in a humidified incubator (37° C., 2% CO2), 24-30 hours prior to experiment.
Subsequently, the media is removed from the cell plate by inversion and 2 μM Fluo-4 is added using a multidrop (Labsystems). Following the 40 minutes dye incubation in the dark at 37° C. and 2% CO2, the extracellular dye present is washed away using an EMBLA (Scatron), leaving the cells in 40 ul of assay buffer (1×HBSS, 10 mM D-Glucose, 1 mM CaCl2, 10 mM HEPES, 10×7.5% NaHCO3 and 2.5 mM Probenecid).
FLIPR Assay—IC50 Determination Protocol
For IC50 determinations the fluorescence is read using FLIPR filter 1 (em […]). A cellular baseline recording is taken for 30 seconds, followed by a 20 μl addition of 10, titrated half-log concentrations of the test compound, yielding cellular concentration ranging from 3 μM to 0.1 nM. Data is collected every 2 seconds for a further 5 minutes prior to the addition of a VR1 agonist solution: either 50 nM solution of capsaicin or MES (2-[N-morpholino]ethanesulfonic acid) buffer (pH 5.2), by the FLIPR pipettor. The FLIPR continues to collect data for a further 4 minutes. […] This consequently leading to a reduction in fluorescence signal and providing a reduced fluorescence reading, compared with no compound, buffer controls. Data is exported by the FLIPR program as a sum of fluorescence calculated under the curve upon the addition of capsaicin. […]
FLIPR (Fluorometric Image Plate Reader) screening assay with HEK T-REX hVR1. […]
For IC50 determinations the fluorescence is read using FLIPR filter 1 (em […]). […] This consequently leading to a reduction in fluorescence signal and providing a reduced fluorescence reading, compared with no compound, buffer controls. Data is exported by the FLIPR program as a sum of fluorescence calculated under the curie upon the addition of capsaicin. […]
On the technique in general: A change in cytosolic calcium serves as a functional read-out for many receptors and channels.
T1 sequence (Q8NER1 whole entry): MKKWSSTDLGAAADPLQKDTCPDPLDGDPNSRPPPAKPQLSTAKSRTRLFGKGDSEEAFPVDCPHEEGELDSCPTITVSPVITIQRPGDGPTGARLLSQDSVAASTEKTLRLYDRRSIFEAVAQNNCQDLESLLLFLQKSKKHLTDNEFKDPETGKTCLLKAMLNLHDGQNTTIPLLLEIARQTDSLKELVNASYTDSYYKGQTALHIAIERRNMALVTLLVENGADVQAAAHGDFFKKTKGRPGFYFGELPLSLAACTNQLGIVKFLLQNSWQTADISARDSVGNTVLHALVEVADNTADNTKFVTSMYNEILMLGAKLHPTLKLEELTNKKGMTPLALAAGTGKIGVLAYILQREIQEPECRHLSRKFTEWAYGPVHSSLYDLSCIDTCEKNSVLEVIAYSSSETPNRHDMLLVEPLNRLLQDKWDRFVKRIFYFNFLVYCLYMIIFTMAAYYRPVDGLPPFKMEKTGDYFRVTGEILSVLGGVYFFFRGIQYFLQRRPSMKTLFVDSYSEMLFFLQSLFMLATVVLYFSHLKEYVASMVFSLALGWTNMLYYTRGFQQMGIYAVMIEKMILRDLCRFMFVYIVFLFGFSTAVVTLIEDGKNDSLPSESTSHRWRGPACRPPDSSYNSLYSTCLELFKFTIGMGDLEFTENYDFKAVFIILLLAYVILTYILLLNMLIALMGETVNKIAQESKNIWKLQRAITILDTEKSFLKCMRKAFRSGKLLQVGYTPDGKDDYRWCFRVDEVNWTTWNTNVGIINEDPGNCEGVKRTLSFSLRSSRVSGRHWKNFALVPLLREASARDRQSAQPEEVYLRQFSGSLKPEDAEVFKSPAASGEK
With `Cc1nc2cc(C(=O)NCc3cccc(C(F)(F)F)c3)ccc2s1` [Example 8, 2-methyl-N-[3-trifluoromethylbenzyl]-1,3-benzothiazole-5-carboxamide], the IC50 (as a rule, the concentration that inhibits the measured activity by half) was determined as 1660 nM.
The value for `Cc1nc2cc(C(=O)NCc3ccc(C(F)(F)F)cc3)ccc2s1` [Example 7, 2-methyl-N-[4-trifluoromethylbenzyl]-1,3-benzothiazole-5 carboxamide] was 2780 nM; that for `Cc1nc2cc(C(=O)Nc3ccc(C(C)(C)C)cc3)ccc2s1` [Example 1, N-4-tert-butylphenyl-2-methyl-1,3-benzothiazole-5-carboxamide] was 226 nM.

The values above are taken from patent US20080108676A1, “Benzothiazolecarboxamides” (New Benzothiazolecarboxamides, priority 2004, published 2008).
